Columns and labels:
[1] = system: mice; assay: Fear extinction paradigm, mouse model of PTSD; assay type: in vivo
From the text: (FIG. 9A) Schematic of experimental design. A single CS-US (tone-shock) pairing on day 1 was followed by 6 CS presentations in a novel context (context B). […] On day 3, the time spent freezing to the CS was quantified. […] (FIG. 9C) No locomotor changes were observed on day 3 (t(26)=1.073, p>0.05). Data are mean +/− SEM.
FIGS. 10A-10B: MBDB improves fear extinction in a mouse model of PTSD. A single CS-US (tone-shock) pairing on day 1 was followed by 6 conditioned stimulus (CS) presentations in a novel context (context B). MBDB or saline vehicle was injected 30 min prior to extinction training on day 2. The time spent freezing to the CS was quantified on […]. […] Data are mean +/− SEM. N=10 for MBDB group (5 mg/kg, IP) and N=16 for saline control group. **p<0.01 vs. vehicle control group.
Effective PTSD treatments facilitate the disassociation between a traumatic memory and the patient's fear response, making cues for the traumatic memory evoke less of a fear response. This is modeled in the mouse fear extinction paradigm (see FIG. 9A) which takes place over 3 days. On day 1 (fear conditioning), mice are trained to acquire a “traumatic memory,” namely associating the conditioned stimulus (CS, tone) to the unconditioned stimulus (US, foot shock). On day 2 (extinction training), they are trained to forget the traumatic memory association by presenting the CS 6 times (with no US) in a novel environment. On day 3 (extinction recall), the mice are “asked” if that tone (CS) still elicits a fearful response, as measured by the time spent freezing when the tone is presented. Less time freezing means better extinction recall. Drugs that improve extinction recall reduce freezing time on day 3, and, therefore, show potential as a PTSD treatment.

[2] = system: rats; assay: Open field test (OFT); assay type: in vivo, rat; details: single methylone dose 5 or 15 mg/kg IP, 30 minutes before testing
Procedure: Data are mean +/− SEM. N=6 per group. * p<0.05; **p<0.01 vs. vehicle control group.
Method: Consecutive beam breaks and/or video-tracking of time spent in the center versus periphery of the open field are measured. Also measured are parameters such as distance traveled and ambulatory activity (horizontal and vertical) for the duration of the test session.
The open field test (OFT) capitalizes on a rodent's innate fear of open spaces to assess anxiety-like behavior. More time spent in the center of an open field reflects an anxiolytic (anti-anxiety) effect.

[3] = system: patients with a primary diagnosis of PTSD; assay: Methylone PTSD case series with long-term follow-up (Example 5): CGI-I and safety; assay type: in vivo, human
From the text: The patients were not given structured psychotherapy in conjunction with methylone treatment, which differs from recent studies of MDMA that emphasize the importance of a manualized psychedelic-assisted psychotherapy model.
No protectedhealth information was disclosed, and no consent was obtained from patients for use of their archival data. Case narratives were systematically compiled from data collected as part of routine clinical work. Diagnoses were confirmed by an experienced clinician using semi-structured interviews. Baseline symptom severity was evaluated using the Clinical Global Impressions Scale-Severity ([…]). Symptom improvement was evaluated using the Clinical Global Impressions Scale-Improvement (CGI-I) following dosing. […] Because these case narratives were examined retrospectively from routine clinical care records, and not gathered prospectively in a research study, more specific validated rating scales for assessing PTSD symptoms were not available. Additionally, follow-up varied, with the length of follow-up ranging from one week (Case 2) to 15 years (Case 16).
Dosing summary: Methylone was administered orally. Other medications were not changed during methylone treatment. […] In several cases, treatment was continued and, in some cases, the dose was further escalated in later sessions (see Table 5). Booster doses were included for 19 patients in one or more of the sessions. Starting doses were between 100 and 270 mg, and these as well as booster doses were selected based on clinical judgement.

[4] = molecular target: T1, serotonin transporter (SERT) (Rattus norvegicus, UniProt P31652); assay: [3H]5HT uptake saturation in rat brain synaptosomes with or without methylone; assay type: biochemical
T1 construct: from tissue; host or cells: rat brain synaptosomes

[5] = molecular target: vesicular monoamine transporter 2 (VMAT2) (Homo sapiens, UniProt Q05940); details: cited from earlier work
[6] = molecular target: dopamine (DA) transporter (Homo sapiens, UniProt Q01959); assay: Radioligand binding, [3H] WIN35428
[7] = molecular target: norepinephrine (NE) transporter (Homo sapiens, UniProt P23975); assay: Radioligand binding, [3H] nisoxetine
[8] = cited from earlier work
[9] = rats, intraperitoneal administration

T1 sequence (P31652 whole entry): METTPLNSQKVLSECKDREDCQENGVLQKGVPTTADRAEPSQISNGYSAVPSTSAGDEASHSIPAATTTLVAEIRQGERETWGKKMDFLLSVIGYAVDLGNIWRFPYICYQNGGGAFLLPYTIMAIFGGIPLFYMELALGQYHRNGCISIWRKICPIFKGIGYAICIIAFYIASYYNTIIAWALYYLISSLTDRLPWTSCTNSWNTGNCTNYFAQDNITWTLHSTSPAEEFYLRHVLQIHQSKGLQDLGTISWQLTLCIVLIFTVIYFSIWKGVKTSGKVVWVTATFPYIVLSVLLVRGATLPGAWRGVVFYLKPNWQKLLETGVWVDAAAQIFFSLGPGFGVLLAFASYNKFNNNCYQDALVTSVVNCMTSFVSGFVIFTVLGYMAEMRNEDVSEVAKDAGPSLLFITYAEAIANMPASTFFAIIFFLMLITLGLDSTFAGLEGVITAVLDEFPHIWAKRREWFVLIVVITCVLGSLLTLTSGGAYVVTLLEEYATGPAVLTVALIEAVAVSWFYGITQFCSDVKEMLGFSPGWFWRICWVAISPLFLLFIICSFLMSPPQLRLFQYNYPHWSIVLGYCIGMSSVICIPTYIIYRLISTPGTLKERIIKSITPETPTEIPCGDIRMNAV
Sequence of norepinephrine (NE) transporter (P23975 whole entry): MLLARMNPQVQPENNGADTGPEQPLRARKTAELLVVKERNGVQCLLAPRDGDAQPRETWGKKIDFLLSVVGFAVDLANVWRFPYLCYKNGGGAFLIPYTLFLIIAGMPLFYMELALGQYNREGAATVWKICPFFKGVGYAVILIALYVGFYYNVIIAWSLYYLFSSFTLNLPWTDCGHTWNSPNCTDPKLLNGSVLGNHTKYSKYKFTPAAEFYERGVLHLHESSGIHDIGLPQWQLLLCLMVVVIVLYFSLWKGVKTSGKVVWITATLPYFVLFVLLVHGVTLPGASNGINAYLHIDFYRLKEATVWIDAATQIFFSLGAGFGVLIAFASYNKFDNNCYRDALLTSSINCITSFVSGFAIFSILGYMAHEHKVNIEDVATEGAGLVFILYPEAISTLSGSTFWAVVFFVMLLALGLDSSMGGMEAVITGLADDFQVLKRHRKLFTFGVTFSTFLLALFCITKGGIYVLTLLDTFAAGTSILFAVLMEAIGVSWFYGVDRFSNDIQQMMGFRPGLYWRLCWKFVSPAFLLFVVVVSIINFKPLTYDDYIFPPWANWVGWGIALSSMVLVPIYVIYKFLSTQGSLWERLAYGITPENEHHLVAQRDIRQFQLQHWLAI
Sequence of vesicular monoamine transporter 2 (VMAT2) (Q05940 whole entry, species assumed): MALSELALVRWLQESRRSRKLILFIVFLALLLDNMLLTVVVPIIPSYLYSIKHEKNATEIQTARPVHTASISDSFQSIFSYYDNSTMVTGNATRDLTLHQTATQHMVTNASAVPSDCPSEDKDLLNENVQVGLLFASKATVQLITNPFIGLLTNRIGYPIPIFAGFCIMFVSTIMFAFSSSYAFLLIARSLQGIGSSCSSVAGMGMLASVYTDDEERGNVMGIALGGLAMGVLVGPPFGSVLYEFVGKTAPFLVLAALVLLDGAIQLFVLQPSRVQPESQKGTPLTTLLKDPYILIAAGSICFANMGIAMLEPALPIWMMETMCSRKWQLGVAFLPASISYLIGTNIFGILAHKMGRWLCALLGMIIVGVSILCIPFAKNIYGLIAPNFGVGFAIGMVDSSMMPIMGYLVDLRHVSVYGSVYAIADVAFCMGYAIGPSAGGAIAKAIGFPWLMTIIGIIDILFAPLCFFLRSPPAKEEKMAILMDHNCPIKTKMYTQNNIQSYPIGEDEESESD
Sequence of dopamine (DA) transporter (Q01959 whole entry): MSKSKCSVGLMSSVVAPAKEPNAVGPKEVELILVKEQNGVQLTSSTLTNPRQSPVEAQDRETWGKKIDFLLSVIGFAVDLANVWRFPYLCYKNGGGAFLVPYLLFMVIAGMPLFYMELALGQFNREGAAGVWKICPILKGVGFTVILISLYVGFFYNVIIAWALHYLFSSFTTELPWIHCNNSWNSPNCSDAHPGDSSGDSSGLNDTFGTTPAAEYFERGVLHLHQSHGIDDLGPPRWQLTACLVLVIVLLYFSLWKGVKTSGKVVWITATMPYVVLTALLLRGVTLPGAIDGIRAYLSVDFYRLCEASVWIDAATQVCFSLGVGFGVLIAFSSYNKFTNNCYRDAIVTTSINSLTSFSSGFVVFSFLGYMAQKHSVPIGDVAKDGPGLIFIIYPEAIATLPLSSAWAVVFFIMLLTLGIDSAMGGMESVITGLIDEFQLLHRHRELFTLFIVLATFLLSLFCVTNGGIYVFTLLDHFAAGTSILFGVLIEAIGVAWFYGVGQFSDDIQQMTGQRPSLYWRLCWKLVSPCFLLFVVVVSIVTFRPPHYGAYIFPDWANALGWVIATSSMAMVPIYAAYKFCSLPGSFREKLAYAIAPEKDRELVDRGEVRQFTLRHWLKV

## CNC(C)C(=O)c1ccc2c(c1)OCO2 (centres unmarked) [methylone, 3,4-methylenedioxy-N-methylcathinone]
[1]; methylone 30 mg/kg IP 30 min prior to extinction training
  enhancement of fear extinction recall compared to saline controls (reduced freezing on day 3): ~60%
[1]; methylone 30 mg/kg IP, day 3
  locomotion during the testing session: no differences between groups
[2]
  time spent in the center of the open field compared to vehicle: significantly increases
[3]; 21 PTSD patients
  patients achieving CGI-I much improved or very much improved: 81%
  tolerability: generally well tolerated
[3]; durability captured for 17 of 21 patients
  patients reporting a durable effect: 16
[3]; in three of the 21 patients, none severe
  total adverse events noted: four
[3]; in vivo
  patients with durable effect >six months: 11
[3]; of 21 PTSD patients
  patients achieving a CGI-I of 1 or 2: 17
[3]; patients who received only a single dose of methylone (n=9)
  patients achieving CGI-I scores of 1 or 2: 89%
[3]; patients with multiple methylone dosing sessions (n=12)
  patients with initial improvement after the initial session: 83%
[4]
  type of interaction at the SERT: competitive
[4]; in the presence of methylone
  Bmax of [3H]5HT uptake: no decrease
  Kd of [3H]5HT uptake: right shifted
[5]
  affinity for VMAT2 lower than that of MDMA: about 13 ×
[6]
  binding at the DA transporter: confirmed methylone binding
[7]
  binding at the NE transporter: confirmed methylone binding
[8]; rat, in vivo
  half-life shorter than MDMA: > 50%
[8]; [9]
  half-life: 1 to 2 h
  time of peak brain and serum concentration: 15 to 30 min
